| melting point [°C] | SMILES |
| --- | --- |
| 129 to 131 | O=C(O)Cn1nccn1 |
| 132 to 134 | CC(=O)Cn1c(CCl)nc2sc3c(c2c1=O)CCCC3 |
| 76 to 78 | Cc1c(Cl)cnc(Cl)c1C#N |
| 211 to 213 | Cc1cc(NC(=O)c2cccc(F)c2)sc1C(=O)O |
| 120 to 122 | Nc1ccc2oc(C(F)(F)F)nc2c1 |
| 158 to 160 | CC(C)C(=O)Nc1ccc(O)cc1 |
| 215 to 217 | Cc1sc2ncnc(SCC(=O)O)c2c1C |
| 90 to 93 | CCOC(=O)c1c(NC(=O)C(C)Cl)sc2c1CCC(C)C2 (stereo not drawn) |
| 139 to 141 | FC(F)(F)Cc1nc2cc(Br)ccc2[nH]1 |
| 144 to 146 | Cc1cc(N)ccc1S(C)(=O)=O |
| 202 to 204 | Nc1ccc2nc(-n3ccnc3)sc2c1 |
| 96 to 98 | Fc1cc(CBr)c2ncccc2c1 |
| 82 to 84 | O=C1CCc2c1ccc(Cl)c2Cl |
| 278 to 280 | O=C(O)c1ccc(OCc2ccncc2)cc1 |
| 179 to 181 | COCCOc1cc(C(=O)O)nc2ccccc12 |
| 99 to 101 | CC(C)(C)OC(=O)c1ccc(N)cc1 |
| 129 to 131 | Cn1c(CC#N)nc2ccccc21 |
| 259 to 261 | Cc1nc(O)nc(O)c1N |
| 99 to 101 | NC(=O)CCc1ccc(F)c(F)c1 |
| 111 to 113 | O=C1COc2ccc(Br)cc21 |
| 142 to 144 | COc1ccc(S)c2ccccc12 |
| 110 to 112 | Cc1ccc(-n2nnnc2S)cc1C |
| 145 to 147 | Cc1ccc(-c2nnc(Cl)c3ccccc23)cc1 |

| melting point [°C] | SMILES |
| --- | --- |
| 103 to 105 | COc1cc(C(=O)O)cc(CC(C)Cl)c1OC (stereo not drawn) |
| 180 to 182 | CC(C)(C)c1ccc(C(=O)N2CSCC2C(=O)O)cc1 (stereo not drawn) |
| 44 to 46 | COc1ccc(C=O)cc1SC |
| 119 to 121 | N#Cc1ccc(NN)cc1C(F)(F)F |
| 79 to 81 | CC(=O)Nc1ccc(N)c(Br)c1 |
| 86 to 88 | Cn1nnnc1-c1cccc(S(=O)(=O)Cl)c1 |
| 79 to 83 | O=Cc1cc(Cl)c2c(c1)OCCO2 |
| 65 to 67 | N#Cc1ccc(F)c(Cl)c1Cl |
| 221 to 223 | O=C(O)C1CC(=O)N(c2ccc3c(c2)OCCO3)C1 (stereo not drawn) |
| 59 to 61 | COc1ccc2[nH]c3c(c2c1)CC(C)CC3 (stereo not drawn) |
| 218 to 220 | CSc1cc(C(=O)O)ccn1 |
| 59 to 61 | COc1cccc(COCC(N)=NO)c1 |
| 64 to 66 | CCCS(=O)(=O)NC(C)C(=O)O (stereo not drawn) |
| 209 to 211 | O=c1[nH]c2ccccc2c(O)c1[N+](=O)[O-] |
| 161 to 163 | Nc1cc(F)cc(C(=O)O)c1F |
| 145 to 147 | Cc1cccc(C(N)=O)c1N |
| 69 to 71 | Nc1cc(Br)ccc1-n1cccn1 |
| 88 to 90 | O=S(=O)(c1cccnc1)N1CCNCC1 |
| 86 to 88 | CC(C)(C)Oc1ncccc1O |
| 97 to 99 | COc1ccc(CC2CC(=O)N2)cc1 (stereo not drawn) |
| 129 to 131 | COC(=O)c1ccc(COc2ccc(C=O)cc2OC)cc1 |
| 103 to 105 | O=C(O)C1=CCCSC1 |
| 204 to 206 | O=C(O)Cc1csc(NC(=O)c2ccccc2F)n1 |

| melting point [°C] | SMILES |
| --- | --- |
| 91 to 93 | COc1cccc(-c2n[nH]cc2C=O)c1 |
| 55 to 57 | CC(C)(C)OC(=O)N1CCCc2cc(N)ccc21 |
| 145 to 147 | Nc1nc(-c2cc(F)ccc2F)cs1 |
| 185 to 187 | Fc1ccc(Nc2nnc(S)s2)cc1 |
| 88 to 90 | NNC(=O)NCc1ccco1 |
| 104 to 106 | NCc1cccc(CN2CCCC(C(N)=O)C2)c1 (stereo not drawn) |
| 169 to 171 | CCCc1noc2nc(C)cc(C(=O)O)c12 |
| 122 to 124 | CCN(c1ccccc1)S(=O)(=O)c1ccc(Cl)c([N+](=O)[O-])c1 |
| 43 to 46 | COc1ccc(C)c(N)c1 |
| 265 to 267 | Cc1c(C(=O)O)oc2cc3c(cc12)CCC3 |
| 178 to 180 | CC(C)NC(=O)Nc1ccccc1C(=O)O |
| 42 to 44 | O=C(O)C1CCN(S(=O)(=O)c2cc([N+](=O)[O-])ccc2Cl)CC1 |
| 67 to 69 | Cc1nc(Cl)cc(-c2cccnc2)n1 |
| 154 to 156 | N#Cc1ccc(CS(N)(=O)=O)cc1 |
| 151 to 153 | NNc1cc(Cl)ncn1 |
| 74 to 76 | CCOc1ccc(C(C)(C)C(=O)O)cc1OCC |
| 182 to 184 | Nc1ccc(-c2ncc3n2CCCC3)cc1 |
| 130 to 132 | CCOC(=O)C(=O)Cc1ccc2ccccc2n1 |
| 106 to 108 | COc1cc(CCl)ccc1S(C)(=O)=O |
| 138 to 140 | CCC(C)(C#N)NC(=O)c1ccccc1 (stereo not drawn) |
| 137 to 139 | N#CCS(=O)(=O)N1CCCCC1 |
| 111 to 113 | Cc1cc(Br)ccc1CC(=O)O |
| 86 to 88 | CC(C)COc1ccc(CC(=O)O)cc1 |

| melting point [°C] | SMILES |
| --- | --- |
| 251 to 253 | O=C(O)c1cc2c(cc1Cl)N1CCCCCC1=NS2(=O)=O |
| 86 to 88 | O=C(O)C1CCCCN1C(=O)OCc1ccccc1 (stereo not drawn) |
| 76 to 78 | CC(C)(C)OC(=O)N[C@@H]1CCCC[C@H]1N (relative stereo) |
| 108 to 110 | CNC(=O)c1cccc(O)c1 |
| 52 to 54 | O=[N+]([O-])c1cnc(Cl)c(Cl)c1 |
| 179 to 181 | NNC(=O)C(=O)Nc1ccccn1 |
| 157 to 159 | O=C1C(=O)N(CN2CCN(CCO)CC2)c2ccccc21 |
| 94 to 96 | O=C(Nc1ccccn1)C1CCCNC1 (stereo not drawn) |
| 105 to 107 | Oc1ccc(CNC2CCCCC2)cc1 |
| 167 to 169 | COC(=O)c1c(O)cc(=O)n2c1CCC2 |
| 107 to 109 | CCc1ccccc1OCC(=O)NN |
| 68 to 70 | OCCN1CCN(Cc2ccsc2)CC1 |
| 200 to 202 | Cn1c(CCC(=O)O)nc(=O)c2ccccc21 |
| 243 to 245 | O=C(COc1ccccc1C(=O)O)Nc1cccc(C(F)(F)F)c1 |
| 198 to 200 | O=C(O)/C=C/c1ccc(Cl)s1 |
| 59 to 61 | Cc1cc(C)c([N+](=O)[O-])c(Cl)n1 |
| 126 to 128 | CC(Oc1cccnc1)C(=O)O (stereo not drawn) |
| 133 to 135 | CCc1oc(C(=O)O)cc1C |
| 219 to 221 | O=C(O)c1nn(-c2cccc(F)c2)ccc1=O |
| 86 to 88 | CC(O)(c1ccc([N+](=O)[O-])cc1)C(F)(F)F (stereo not drawn) |
| 168 to 170 | O=C(Cn1c(Cl)nc2ccccc21)c1ccccc1 |
| 215 to 217 | O=C(O)c1cc(-c2ccco2)nc2onc(C3CC3)c12 |
| 111 to 113 | CC(O)c1ccccc1NC(=O)c1ccccc1 (stereo not drawn) |

| melting point [°C] | SMILES |
| --- | --- |
| 167 to 169 | NC(=O)c1ccc(Br)c(F)c1 |
| 149 to 151 | COCCOc1ccc(C(=O)O)cc1OC |
| 54 to 56 | O=C1C=CC(=O)N1c1ccccc1Sc1ccc(Cl)cc1 |
| 73 to 75 | NC(=O)c1cccnc1NC1CCN(Cc2ccccc2)CC1 |
| 109 to 111 | CCOC(=O)CN1C(=O)CNC1=O |
| 114 to 121 | O=C(O)CCc1c(-c2ccc(F)cc2)[nH]c2ccccc12 |
| 201 to 203 | NS(=O)(=O)c1ccc(C(=O)O)cc1Br |
| 198 to 200 | COc1ccc(C(=O)Nc2ccc(C(=O)O)s2)cc1 |
| 120 to 122 | O=C(O)c1cc(S(=O)(=O)N2CCCCC2)ccc1N1CCCC1 |
| 97 to 99 | OCc1cc(Cl)cc2c1OCC2 |
| 85 to 87 | COc1ccc2ccccc2c1-c1cc(CBr)on1 |
| 176 to 178 | CSc1cc(C)ccc1C(=O)O |
| 79 to 81 | N#CCc1cc(Br)c2c(c1)C=CCO2 |
| 79 to 81 | COCCn1cnnc1S |
| 109 to 111 | CC1=NN(c2nc(C)cc(C)n2)C(=O)C1 |
| 178 to 180 | Cc1ccn(-c2ccc(C(=O)O)cc2)n1 |
| 169 to 171 | C/C(=C\C(=O)O)C12CC3CC(CC(C3)C1)C2 |
| 161 to 163 | O=C(O)C1=NN(c2ccc(Cl)cc2)C(=O)CC1 |
| 217 to 219 | Nc1nccc(-c2ccc([N+](=O)[O-])cc2)n1 |
| 269 to 271 | Sc1nnc(-c2cccs2)n1-c1ccccc1 |
| 161 to 163 | O=C(O)c1ccccc1Oc1ccc(Cl)cc1Cl |
| 107 to 109 | CCN(CC)c1ccc(N)cc1S(=O)(=O)Nc1ccc(OC)cc1 |
| 49 to 51 | CC(=O)c1cc(-c2ccccc2)ccc1O |

| melting point [°C] | SMILES |
| --- | --- |
| 120 to 122 | Cc1n[nH]c(N)c1-c1ccc2c(c1)OCCO2 |
| 106 to 108 | Nc1c(Cl)cnn1C1CCN(Cc2ccccc2)C1 (stereo not drawn) |
| 109 to 111 | O=C(O)c1cc(S(=O)(=O)Cl)c(Br)s1 |
| 84 to 86 | COC(=O)c1cccc(N)c1O |
| 66 to 68 | COC(=O)c1cc(F)c(Br)c([N+](=O)[O-])c1 |
| 95 to 97 | O=C(CCl)NCC1(c2ccccc2)CCC1 |
| 151 to 153 | C#CCN1CCC[C@H]1C(=O)O |
| 120 to 122 | Cc1cccc2nc(CCl)cc(=O)n12 |
| 114 to 116 | COc1ccc(S(=O)(=O)N2CCCCCC2)cc1C(=O)O |
| 220 to 222 | Cc1nc2ncnn2c(C)c1CC(=O)O |
| 86 to 88 | CC(CN1CCOCC1)C(=O)NN (stereo not drawn) |
| 223 to 225 | CNc1ccnc2ccncc12 |
| 96 to 98 | COc1ccc(OC)c(C(C)NC(=O)C(C)Cl)c1 (stereo not drawn) |
| 157 to 159 | O=C(O)C1CC(O)CN1C(=O)COc1ccccc1 (stereo not drawn) |
| 118 to 120 | CC(N)=NO |
| 189 to 191 | CC(C)(C)c1ccc(C2(C(=O)O)CCCC2)cc1 |
| 65 to 68 | O=C(NCCO)c1cccc(S(=O)(=O)N2CCCCC2)c1 |
| 230 to 232 | COc1cc(OC)c2c(-c3ccccc3)cc(S)nc2c1 |
| 46 to 48 | COc1ccc2c(c1)NCCCC2 |
| 138 to 140 | CC(NC(=O)c1ccc(Br)cc1)C(=O)O (stereo not drawn) |

| SMILES | melting point [°C] |
| --- | --- |
| COC(=O)NS(=O)(=O)Cl | 69 to 71 |
| O=S(=O)(Cl)c1cn[nH]c1 | 99 to 101 |
| CCC(CC)n1nc(C(=O)O)cc1C | 110 to 112 |
| Cc1nnc(CCl)s1 | 76 to 78 |
| O=C1NC(=O)C(=O)C(=O)N1 | 255 to 257 |
| O=C(O)c1cc(S(=O)(=O)F)cs1 | 191 to 193 |
| Cc1c(C(=O)O)cnn1C1CCCC1 | 99 to 101 |
| Cc1cc(C(=O)O)nn1C1CCCCC1 | 145 to 147 |

Source: a melting point compilation (Tetko et al.)
